Values quoted from earlier work, collected in patent US20260257261A1, “BIOMIMETIC MULTIFUNCTIONAL LIGNOCELLULOSIC DEGRADABLE SORBENT FOR ENVIRONMENTAL REMEDIATION” (THE TEXAS A&M UNIVERSITY SYSTEM, priority 2022, published 2026).

Details: previous studies by Mahapatra et al. and others
In the case of `O=C(O)C(F)(F)C(F)(F)C(F)(F)C(F)(F)F` [PUPA], the “toxicity relative to PFOA (C8)” value is given as “much less toxic”.
In the case of `O=C(O)C(F)(F)C(F)(F)C(F)(F)F` [PFBA], the “toxicity relative to PFOA (C8)” value is listed as “much less toxic”.
In the case of `O=C(O)C(F)(F)C(F)(F)C(F)(F)C(F)(F)C(F)(F)F` [PFHA, perfluorohexanoic acid], the “toxicity relative to PFOA (C8)” value is given as “much less toxic”.
